According to US8377967B2, “Piperidine derivative” (Nippon Zoki Pharmaceutical Co., Ltd., priority 2008, dated 2013):
pIC50: −log10 of the molar value. Structures can show the parent of a compound that is named as a salt.

What follows are compounds tested against human histamine H1 receptor (Homo sapiens, UniProt P35367) (assay: In vitro human histamine H1 receptor binding experiment ([3H]pyrilamine)). Settings: HEK293A cells stably expressing human histamine H1 receptor, [3H]pyrilamine 3 nmol/L, room temperature 60 minutes.
Chain of human histamine H1 receptor (P35367 whole entry): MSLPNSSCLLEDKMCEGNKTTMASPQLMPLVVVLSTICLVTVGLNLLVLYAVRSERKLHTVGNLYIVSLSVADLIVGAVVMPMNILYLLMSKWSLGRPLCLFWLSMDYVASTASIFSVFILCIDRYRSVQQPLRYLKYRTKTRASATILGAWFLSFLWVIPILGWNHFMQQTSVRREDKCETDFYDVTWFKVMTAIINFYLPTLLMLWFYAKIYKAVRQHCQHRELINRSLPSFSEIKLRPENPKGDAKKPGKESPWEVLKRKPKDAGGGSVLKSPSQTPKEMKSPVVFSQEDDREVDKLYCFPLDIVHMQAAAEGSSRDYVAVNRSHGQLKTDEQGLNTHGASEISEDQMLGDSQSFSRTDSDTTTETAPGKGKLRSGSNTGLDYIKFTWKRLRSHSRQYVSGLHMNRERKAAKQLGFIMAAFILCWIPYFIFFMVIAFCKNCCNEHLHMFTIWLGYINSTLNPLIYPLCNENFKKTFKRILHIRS
Experimental: Recombinant human histamine H1 receptor plasmid (prepared by Invitrogen) was transfected to HEK293A cells with Lipofectamine 2000 (manufactured by Invitrogen). Cells stably expressing human histamine H1 receptor were screened with Geneticin (manufactured by Invitrogen). The cells were continued to be cultured using a Dulbecco's Modified Eagle Medium containing 10% fetal bovine serum, 0.1 mmol/L MEM Non-Essential Amino Acids Solution, 2 mmol/L L-glutamine and 0.7 mg/mL Geneticin in a 5% CO2 incubator at 37° C. The cells stably expressing human histamine H1 receptor were prepared using 50 mmol/L Tris-HCl (pH 7.5) (hereinafter referred to as buffer) containing 0.1% bovine serum albumin, so as to have a concentration of 3×10^6 cells/mL, to give a cell sample preparation. Fifty microliters of the buffer, 50 μl of a test substance solution at various concentrations, and 50 μL of [^3H]pyrilamine solution (final concentration: 3 nmol/L) were added to each of the wells on the 96-well plate, and stirred, and 100 μL of the cell sample preparation was then added thereto (at a concentration of 3×10^5 cells/well) to initiate the reaction.
The cells were incubated at room temperature for 60 minutes, and then filtered on UniFilter GF/C plate (manufactured by Packard) immersed in 0.5% polyethyleneimine using a cell harvester (IH-110, manufactured by INNOTECH CORPORATION), to stop the reaction, and the plate was washed with the buffer. The plate after washing was sufficiently dried, and 20 μL of a scintillator (MaxiLight, manufactured by Hidex) was added thereto, and count per minute (cpm) was measured with a multi-labeled microplate reader (Plate Chameleo II, manufactured by Hidex). The nonspecific binding was cpm in a case where 30 μmol/L pyrilamine was added. The experiments were carried out at n=3, and at least repeated 3 times.

pIC50 | SMILES
7.78 | CCOC(=O)c1ccc2c(c1)C(=C1CCN(C)CC1)c1sccc1CC2 [Compound 115, Ethyl 4-(1-methylpiperidin-4-ylidene)-9,10-dihydro-4H-3-thiabenzo[f]azulene-6-carboxylate]
8.40 | COC(=O)Cc1ccc2c(c1)C(=C1CCN(C)CC1)c1ccsc1CO2 [Compound 116, Methyl[4-(1-methylpiperidin-4-ylidene)-4,10-dihydro-9-oxa-1-thiabenzo[f]azulen-6-yl]acetate hydrochloride]
7.02 | CN1CCC(=C2c3cc(C(=O)O)ccc3CCc3ccsc32)CC1 [Compound 121, 4-(1-Methylpiperidin-4-ylidene)-9,10-dihydro-4H-3-thiabenzo[f]azulene-6-carboxylic acid]
7.87 | OCCc1ccc2c(c1)C(=C1CCN(CCO)CC1)c1sccc1CO2 [Compound 122, 2-{4-[1-(2-Hydroxyethyl)piperidin-4-ylidene]-4,10-dihydro-9-oxa-3-thiabenzo[f]azulen-6-yl}ethanol]
8.51 | COC(=O)CCCc1ccc2c(c1)C(=C1CCN(C)CC1)c1sccc1CO2 [Compound 123, Methyl 4-[4-(1-methylpiperidin-4-ylidene)-4,10-dihydro-9-oxa-3-thiabenzo[f]azulen-6-yl]butyrate hydrochloride]
7.77 | CCCN1CCC(=C2c3ccccc3CCc3sc(C(=O)OCC)cc32)CC1 [Compound 133, Ethyl 4-(1-propylpiperidin-4-ylidene)-9,10-dihydro-4H-1-thiabenzo[f]azulene-2-carboxylate hydrochloride]
8.17 | CCN1CCC(=C2c3cc(CCCC(=O)OC)ccc3OCc3ccsc32)CC1 [Compound 141, Methyl 4-[4-(1-ethylpiperidin-4-ylidene)-4,10-dihydro-9-oxa-3-thiabenzo[f]azulen-6-yl]butyrate hydrochloride]
8.39 | CCOC(=O)Cc1ccc2c(c1)C(=C1CCN(C)CC1)c1sccc1CC2 [Compound 147, Ethyl[4-(1-methylpiperidin-4-ylidene)-9,10-dihydro-4H-3-thiabenzo[f]azulen-6-yl]acetate hydrochloride]
7.59 | CCOC(=O)C(C)(C)c1cc2c(s1)CCc1ccccc1C2=C1CCN(CC)CC1 [Compound 154, Ethyl 2-[4-(1-ethylpiperidin-4-ylidene)-9,10-dihydro-4H-1-thiabenzo[f]azulen-2-yl]-2-methylpropionate hydrochloride]
8.02 | COC(=O)CCCCc1ccc2c(c1)C(=C1CCN(C)CC1)c1sccc1CO2 [Compound 156, Methyl 5-[4-(1-methylpiperidin-4-ylidene)-4,10-dihydro-9-oxa-3-thiabenzo[f]azulen-6-yl]valerate hydrochloride]
7.04 | CN1CCC(=C2c3cc(CCCCC(=O)O)ccc3OCc3ccsc32)CC1 [Compound 157, 5-[4-(1-Methylpiperidin-4-ylidene)-4,10-dihydro-9-oxa-3-thiabenzo[f]azulen-6-yl]valeric acid]
7.33 | CCOC(=O)C=Cc1cc2c(s1)CCc1ccccc1C2=C1CCN(CC)CC1 [Compound 158, Ethyl 3-[4-(1-ethylpiperidin-4-ylidene)-9,10-dihydro-4H-1-thiabenzo[f]azulen-2-yl]acrylate]
8.25 | CCOC(=O)c1ccc2c(c1)C(=C1CCN(CC)CC1)c1sccc1CC2 [Compound 160, Ethyl 4-(1-ethylpiperidin-4-ylidene)-9,10-dihydro-4H-3-thiabenzo[f]azulene-6-carboxylate]
7.04 | COC(=O)Cc1ccc2c(c1)C(=C1CCN(CCCN3CCCCC3)CC1)c1sccc1CO2 [Compound 163, Methyl {4-[1-(3-piperidin-1-yl-propyl)piperidin-4-ylidene]-4,10-dihydro-9-oxa-3-thiabenzo[f]azulen-6-yl}acetate dihydrochloride]
7.96 | COC(=O)Cc1ccc2c(c1)C(=C1CCN(CCNC(N)=O)CC1)c1sccc1CO2 [Compound 174, Methyl {4-[1-(2-ureidoethyl)piperidin-4-ylidene]-4,10-dihydro-9-oxa-3-thiabenzo[f]azulen-6-yl}acetate]
